Test: Pharmacokinetic profile of tolperisone after single and multi-dosing (150 mg regimen over 7 days) in healthy subjects under fasted and fed conditions
Details: for AUC(0-t) / AUC(inf) / Cmax / t½ / λz / AUC(0-6): mean ± SD; for Tmax: median
[1] = Day 1 - 0800 Dose, Fasted, Females
[2] = Day 1 - 0800 Dose, Fasted, Males
[3] = Day 1 - 0800 Dose, Fasted, both sexes
[4] = Day 1 - 0800 Dose, Fed, Females
[5] = Day 1 - 0800 Dose, Fed, both sexes
[6] = Day 1, fed vs fasted, both sexes
[7] = Day 2 - 2200 Dose, Fasted, Females
[8] = Day 2 - 2200 Dose, Fasted, Males
[9] = Day 2 - 2200 Dose, Fasted, both sexes
[10] = Day 2 - 2200 Dose, Fed, Females
[11] = Day 2 - 2200 Dose, Fed, both sexes
[12] = Day 7 - 0800 Dose, Fasted, Females
[13] = Day 7 - 0800 Dose, Fasted, Males
[14] = Day 7 - 0800 Dose, Fasted, both sexes
[15] = Day 7 - 0800 Dose, Fed, Females
[16] = Day 7 - 0800 Dose, Fed, both sexes
[17] = Day 7 - 2200 Dose, Fasted, Females
[18] = Day 7 - 2200 Dose, Fasted, Males
[19] = Day 7 - 2200 Dose, Fasted, both sexes
[20] = Day 7 - 2200 Dose, Fed, Females
[21] = Day 7 - 2200 Dose, Fed, both sexes

Protocol: Dosing Regimen: Subjects in each cohort received tolperisone according to the following regimen.
Blood samples for the measurement of the plasma concentrations of tolperisone and metabolites M1 (4-hydroxymethyltolperisone) and M4 (4-carboxy-tolperisone) were collected at the times shown in Table 8.
Bioanalytical: Plasma concentrations of tolperisone and metabolites M1 and M4 were measured using a validated LC/MS/MS assay by Pharm-analyt Laboratory, Baden Austria. The limits of quantitation (LOQ) for tolperisone, Mi, and M4 in plasma were 0.2 ng/ML, and 0.01 μg/mL, respectively.
Pharmacokinetic Analyses: Pharmacokinetic parameters for tolperisone, M1, and M4 were calculated using non-compartmental analysis. Only plasma concentrations greater than or equal to the LOQ for the respective assay were used in the pharmacokinetic analyses. Actual blood sampling times were used in all pharmacokinetic analyses. […] All pharmacokinetic calculations were done using SAS® for Windows® Version 9.1.3.
The maximum plasma concentration (Cmax) and time to Cmax (Tmax) were taken directly from the data. The elimination rate constant, λz, was calculated as the negative of the slope of the terminal log-linear segment of the plasma concentration-time curve. The range of data to be used for each subject and treatment was determined by visual inspection of a semi-logarithmic plot of concentration versus time. Elimination half-life (t½) was calculated according to the following equation: [formula] Area under the curve to the final sample with a concentration greater than or equal to the LOQ [(AUC(0-t)] was calculated using the linear trapezoidal method and extrapolated to infinity [AUC(inf)] using: [formula] where Ctf is the final concentration≧LOQ.
The maximum plasma concentration (Cmax) and time to Cmax (Tmax) were taken directly from the data.
The maximum plasma concentration (Cmax) and time to Cmax (Tmax) were taken directly from the data. The elimination rate constant, λz, and half-life, t½, were calculated as described for the 0800 dose on Day 1 (above). Areas under the curve to the final sample with a concentration greater than or equal to the LOQ [(AUC(O-t)] and over the 6-hour dosing interval [AUC(0-6)] were calculated using the linear trapezoidal method.

## CC(CN1CCCCC1)C(=O)c1ccc(C(=O)O)cc1 (racemic) [Metabolite M4, 4-carboxy-tolperisone]
[1]
  AUC(0-t): 2.79 ± 0.37 (3) h · μg/mL
  AUC(inf): 2.86 ± 0.40 (3) h · μg/mL
  Cmax: 1.31 ± 0.05 (3) μg/mL
  t½: 0.99 ± 0.04 (3) h
  λz: 0.6981 ± 0.0253 (3) h^−1
  Tmax: 1.00 (3) h
[2]
  AUC(0-t): 2.26 ± 0.42 (7) h · μg/mL
  AUC(inf): 2.34 ± 0.44 (7) h · μg/mL
  Cmax: 1.31 ± 0.44 (7) μg/mL
  t½: 1.10 ± 0.08 (7) h
  λz: 0.6321 ± 0.0488 (7) h^−1
  Tmax: 0.75 (7) h
[3]
  AUC(0-t): 2.42 ± 0.46 (10) h · μg/mL
  AUC(inf): 2.49 ± 0.48 (10) h · μg/mL
  Cmax: 1.31 ± 0.36 (10) μg/mL
  t½: 1.07 ± 0.088 (10) h
  λz: 0.6519 ± 0.0524 (10) h^−1
  Tmax: 0.88 (10) h
[4]
  AUC(0-t): 2.74 ± 0.74 (4) h · μg/mL
  AUC(inf): 2.94 ± 0.84 (4) h · μg/mL
  Cmax: 1.02 ± 0.18 (4) μg/mL
  t½: 1.16 ± 0.21 (4) h
  λz: 0.6189 ± 0.1389 (4) h^−1
  Tmax: 2.00 (4) h
Day 1 - 0800 Dose, Fed, Males
  AUC(0-t): 2.32 ± 0.70 (6) h · μg/mL
  AUC(inf): 2.43 ± 0.76 (6) h · μg/mL
  Cmax: 1.27 ± 0.45 (6) μg/mL
  t½: 1.17 ± 0.19 (6) h
  λz: 0.6047 ± 0.0938 (6) h^−1
  Tmax: 0.88 (6) h
[5]
  AUC(0-t): 2.49 ± 0.70 (10) h · μg/mL
  AUC(inf): 2.64 ± 0.79 (10) h · μg/mL
  Cmax: 1.17 ± 0.38 (10) μg/mL
  t½: 1.16 ± 0.19 (10) h
  λz: 0.6104 ± 0.1067 (10) h^−1
  Tmax: 1.50 (10) h
[6]
  decrease in the mean value for Cmax on administration with food: 11%
  increase in the mean value for AUC(inf) on administration with food: 6%
[7]
  Cmax: 0.96 ± 0.48 (3) μg/mL
  Tmax: 1.00 (3) h
[8]
  Cmax: 0.53 ± 0.32 (7) μg/mL
  Tmax: 1.50 (7) h
[9]
  Cmax: 0.66 ± 0.40 (10) μg/mL
  Tmax: 1.25 (10) h
[10]
  Cmax: 0.82 ± 0.41 (4) μg/mL
  Tmax: 1.25 (4) h
Day 2 - 2200 Dose, Fed, Males
  Cmax: 0.75 ± 0.42 (6) μg/mL
  Tmax: 1.00 (6) h
[11]
  Cmax: 0.78 ± 0.40 (10) μg/mL
  Tmax: 1.00 (10) h
Day 7, 0800 dose, both sexes
  mean AUC(0-6) under fed conditions lower than fasted: 3%
  mean Cmax under fed conditions lower than fasted: 28%
[12]
  AUC(0-6): 2.86 ± 0.42 (3) h · μg/mL
  Cmax: 1.57 ± 0.25 (3) μg/mL
  t½: 1.12 ± 0.08 (3) h
  λz: 0.6226 ± 0.0416 (3) h^−1
  Tmax: 0.75 (3) h
[13]
  AUC(0-6): 2.06 ± 0.39 (7) h · μg/mL
  Cmax: 1.04 ± 0.32 (7) μg/mL
  t½: 1.20 ± 0.07 (7) h
  λz: 0.5809 ± 0.0358 (7) h^−1
  Tmax: 0.75 (7) h
[14]
  AUC(0-6): 2.30 ± 0.54 (10) h · μg/mL
  Cmax: 1.19 ± 0.38 (10) μg/mL
  t½: 1.17 ± 0.081 (10) h
  λz: 0.5934 ± 0.0406 (10) h^−1
  Tmax: 0.75 (10) h
[15]
  AUC(0-6): 2.31 ± 0.39 (4) h · μg/mL
  Cmax: 0.95 ± 0.45 (4) μg/mL
  t½: 1.10 ± 0.20 (3) h
  λz: 0.6452 ± 0.1199 (3) h^−1
  Tmax: 2.00 (4) h
Day 7 - 0800 Dose, Fed, Males
  AUC(0-6): 2.17 ± 0.57 (6) h · μg/mL
  Cmax: 0.80 ± 0.24 (6) μg/mL
  t½: 1.21 ± 0.30 (6) h
  λz: 0.5978 ± 0.1116 (6) h^−1
  Tmax: 1.75 (6) h
[16]
  AUC(0-6): 2.23 ± 0.49 (10) h · μg/mL
  Cmax: 0.86 ± 0.32 (10) μg/mL
  t½: 1.17 ± 0.26 (09) h
  λz: 0.6136 ± 0.1092 (09) h^−1
  Tmax: 2.00 (10) h
[17]
  Cmax: 1.40 ± 0.21 (3) μg/mL
  Tmax: 1.50 (3) h
[18]
  Cmax: 0.844 ± 0.243 (7) μg/mL
  Tmax: 1.03 (7) h
[19]
  Cmax: 1.01 ± 0.35 (10) μg/mL
  Tmax: 1.27 (10) h
[20]
  Cmax: 0.99 ± 0.25 (4) μg/mL
  Tmax: 1.25 (4) h
Day 7 - 2200 Dose, Fed, Males
  Cmax: 0.94 ± 0.25 (6) μg/mL
  Tmax: 1.04 (6) h
[21]
  Cmax: 0.96 ± 0.24 (10) μg/mL
  Tmax: 1.04 (10) h
Seven days of dosing, up to 150 mg three times daily
  accumulation (increase in Cmax over the seven days of dosing): little or no accumulation
summary, not dependent on sex, food or duration of dosing
  mean elimination half-life: ~1.1 h

— patent US20070249673A1, “Method for administering tolperisone” (priority 2006, published 2007)
